Test results reported in ChEMBL document CHEMBL3885861, “Open TG-GATES”.

Species on record: Rattus norvegicus
Experiment: Open TG-GATES - Regimen: Single
Type: toxicity, organism-based, Sprague-Dawley
Design: regimen Single, gender Male, age 6 weeks
Settings: in vivo, po, 10 mg/kg, route gavage, dose level Low; for Bas / Eos / Hb / Ht / Lym / MCH / MCHC / MCV / Mono / Neu / Plat / RBC / Ret / WBC: tissue Blood; for KIDNEY_L / KIDNEY_R / KIDNEY_TOTAL: tissue Kidney; for LIVER: tissue Liver; for A/G / ALP / ALT / AST / BUN / CRE / Ca / Cl / DBIL / GLC / IP / K / LDH / Na / PL / RALB / TBIL / TC / TG / TP / gamma-GTP: tissue Plasma

Cc1ccc2cc3c(ccc4ccccc43)c3c2c1CC3 [3-METHYLCHOLANTHRENE]
TERMINAL_BW (3 h): 210.8 g | Bas (3 h): 0% | Eos (3 h): 0.8% | Hb (3 h): 12.6 g/dL | Ht (3 h): 39.3% | Lym (3 h): 77.6% | MCH (3 h): 20.5 pg | MCHC (3 h): 32.2% | MCV (3 h): 63.7 fL | Mono (3 h): 3.4% | Neu (3 h): 17.8% | Plat (3 h): 130.6 x10_4/uL | RBC (3 h): 616.6 x10_4/ul | Ret (3 h): 9.1% | WBC (3 h): 94.8 x10_2/uL | KIDNEY_L (3 h): 0.9 g | KIDNEY_R (3 h): 0.9 g | KIDNEY_TOTAL (3 h): 1.8 g | LIVER (3 h): 9.5 g | A/G (3 h): 1 | ALP (3 h): 1720 IU/L | ALT (3 h): 46.6 IU/L | AST (3 h): 81 IU/L | BUN (3 h): 13.1 mg/dL | CRE (3 h): 0.1 mg/dL | Ca (3 h): 10.9 mg/dL | Cl (3 h): 103 meq/L | DBIL (3 h): 0.002 mg/dL | GLC (3 h): 175.4 mg/dL | IP (3 h): 8.4 mg/dL | K (3 h): 4.2 meq/L | LDH (3 h): 201.8 IU/L | Na (3 h): 139.7 meq/L | PL (3 h): 172 mg/dL | RALB (3 h): 2.9 g/dL | TBIL (3 h): 0.004 mg/dL | TC (3 h): 80 mg/dL | TG (3 h): 185.2 mg/dL | TP (3 h): 5.6 g/dL | gamma-GTP (3 h): 0.7 IU/L | TERMINAL_BW (6 h): 205.3 g | Bas (6 h): 0% | Eos (6 h): 0.4% | Hb (6 h): 12.9 g/dL | Ht (6 h): 38.8% | Lym (6 h): 73.8% | MCH (6 h): 20.7 pg | MCHC (6 h): 33.3% | MCV (6 h): 62.1 fL | Mono (6 h): 3.6% | Neu (6 h): 21.2% | Plat (6 h): 131.8 x10_4/uL | RBC (6 h): 625.8 x10_4/ul | Ret (6 h): 7.9% | WBC (6 h): 136.1 x10_2/uL | KIDNEY_L (6 h): 0.9 g | KIDNEY_R (6 h): 0.9 g | KIDNEY_TOTAL (6 h): 1.8 g | LIVER (6 h): 8.3 g | A/G (6 h): 1 | ALP (6 h): 1483.2 IU/L | ALT (6 h): 37.6 IU/L | AST (6 h): 74.6 IU/L | BUN (6 h): 8.2 mg/dL | CRE (6 h): 0.1 mg/dL | Ca (6 h): 10.6 mg/dL | Cl (6 h): 105.3 meq/L | DBIL (6 h): 0.002 mg/dL | GLC (6 h): 165.8 mg/dL | IP (6 h): 9.2 mg/dL | K (6 h): 4.2 meq/L | LDH (6 h): 162 IU/L | Na (6 h): 140.5 meq/L | PL (6 h): 160.6 mg/dL | RALB (6 h): 2.8 g/dL | TBIL (6 h): 0.004 mg/dL | TC (6 h): 87.6 mg/dL | TG (6 h): 79.2 mg/dL | TP (6 h): 5.6 g/dL | gamma-GTP (6 h): 0.7 IU/L | TERMINAL_BW (9 h): 205.9 g | Bas (9 h): 0% | Eos (9 h): 0.8% | Hb (9 h): 12.2 g/dL | Ht (9 h): 37.7% | Lym (9 h): 74.2% | MCH (9 h): 20.2 pg | MCHC (9 h): 32.5% | MCV (9 h): 62 fL | Mono (9 h): 2.8% | Neu (9 h): 21.6% | Plat (9 h): 122.2 x10_4/uL | RBC (9 h): 608.4 x10_4/ul | Ret (9 h): 8.9% | WBC (9 h): 114.6 x10_2/uL | KIDNEY_L (9 h): 0.9 g | KIDNEY_R (9 h): 0.9 g | KIDNEY_TOTAL (9 h): 1.7 g | LIVER (9 h): 8.3 g | A/G (9 h): 1 | ALP (9 h): 1540.8 IU/L | ALT (9 h): 33.6 IU/L | AST (9 h): 72 IU/L | BUN (9 h): 11.6 mg/dL | CRE (9 h): 0.1 mg/dL | Ca (9 h): 10.5 mg/dL | Cl (9 h): 104.7 meq/L | DBIL (9 h): 0 mg/dL | GLC (9 h): 174.4 mg/dL | IP (9 h): 10.2 mg/dL | K (9 h): 4.4 meq/L | LDH (9 h): 186.6 IU/L | Na (9 h): 142.1 meq/L | PL (9 h): 155.2 mg/dL | RALB (9 h): 2.8 g/dL | TBIL (9 h): 0.002 mg/dL | TC (9 h): 81.4 mg/dL | TG (9 h): 90.6 mg/dL | TP (9 h): 5.5 g/dL | gamma-GTP (9 h): 0.8 IU/L | TERMINAL_BW (24 h): 216.8 g | Bas (24 h): 0% | Eos (24 h): 0.2% | Hb (24 h): 12.7 g/dL | Ht (24 h): 38.9% | Lym (24 h): 79% | MCH (24 h): 20.2 pg | MCHC (24 h): 32.6% | MCV (24 h): 62 fL | Mono (24 h): 3.4% | Neu (24 h): 16.2% | Plat (24 h): 120.4 x10_4/uL | RBC (24 h): 627.6 x10_4/ul | Ret (24 h): 7.9% | WBC (24 h): 105.1 x10_2/uL | KIDNEY_L (24 h): 0.9 g | KIDNEY_R (24 h): 1 g | KIDNEY_TOTAL (24 h): 1.9 g | LIVER (24 h): 10.7 g | A/G (24 h): 1 | ALP (24 h): 1758 IU/L | ALT (24 h): 40.6 IU/L | AST (24 h): 73.8 IU/L | BUN (24 h): 15.7 mg/dL | CRE (24 h): 0.1 mg/dL | Ca (24 h): 10.9 mg/dL | Cl (24 h): 103.5 meq/L | DBIL (24 h): 0.002 mg/dL | GLC (24 h): 179.6 mg/dL | IP (24 h): 6.9 mg/dL | K (24 h): 4.4 meq/L | LDH (24 h): 173.4 IU/L | Na (24 h): 141.7 meq/L | PL (24 h): 165.6 mg/dL | RALB (24 h): 2.8 g/dL | TBIL (24 h): 0.002 mg/dL | TC (24 h): 81.6 mg/dL | TG (24 h): 150.3 mg/dL | TP (24 h): 5.5 g/dL | gamma-GTP (24 h): 0.8 IU/L
